This passage reports IC50 results from patent US12421210B2, “Fused bicyclic heterocycles as therapeutic agents” (NEW YORK UNIVERSITY, priority 2018, dated 2025).

Sequence of human NAMPT enzyme (His-hNAMPT) (P43490 whole entry): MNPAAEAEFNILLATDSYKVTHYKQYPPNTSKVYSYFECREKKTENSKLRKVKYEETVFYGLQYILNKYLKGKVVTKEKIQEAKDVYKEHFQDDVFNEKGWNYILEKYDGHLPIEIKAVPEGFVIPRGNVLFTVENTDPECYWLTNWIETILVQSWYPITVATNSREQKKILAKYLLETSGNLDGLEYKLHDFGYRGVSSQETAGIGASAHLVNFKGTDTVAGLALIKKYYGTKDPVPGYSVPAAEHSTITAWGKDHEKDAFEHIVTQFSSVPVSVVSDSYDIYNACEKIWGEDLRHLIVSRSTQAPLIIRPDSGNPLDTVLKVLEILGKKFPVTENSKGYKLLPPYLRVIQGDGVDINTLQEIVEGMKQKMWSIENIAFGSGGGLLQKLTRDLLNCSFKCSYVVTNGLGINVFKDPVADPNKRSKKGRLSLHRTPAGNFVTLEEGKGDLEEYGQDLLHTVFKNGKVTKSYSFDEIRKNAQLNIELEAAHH

This experiment addresses human NAMPT enzyme (His-hNAMPT) (Homo sapiens (Human), UniProt P43490). In words: NAMPT enzymatic inhibition assay (fluorescence, NADH product). The settings on record: [BPS]; read-out: NAMPT IC50 (μM) [BPS]. The class given is biochemical.
As usually defined, the IC50 is the concentration that inhibits the measured activity by half. As for `Nc1ccc(/C=C/C(=O)NCC[C@@H]2[C@H]3CN(S(=O)(=O)c4ccccc4)C[C@@H]23)cn1` [Example 45, (E)-3-(6-aminopyrdiin-3-yl)-N-(2-((1R,5S,6s)-3-(phenylsulfonyl)-3-azabicyclo[3.1.0]hexan-6-yl)ethyl)acrylamide], the IC50 lay within 0.01 to 0.49 µM.

In the case of `Nc1ccc(/C=C/C(=O)NCC[C@@H]2[C@H]3CN(S(=O)(=O)c4ccc(F)cc4)C[C@@H]23)cn1` [Example 46, (E)-3-(6-aminopyridin-3-yl)-N-(2-((1R,5S,6s)-3-((4-fluorophenyl)sulfonyl)-3-azabicyclo[3.1.0]hexan-6-yl)ethyl)acrylamide], the IC50 was in the range of 0.01 to 0.49 µM.

With `Nc1ccc(/C=C/C(=O)NCC[C@@H]2[C@H]3CN(S(=O)(=O)C4CCOCC4)C[C@@H]23)cn1` [Example 47, (E)-3-(6-aminopyridin-3-yl)-N-(2-((1R,5S,6s)-3-((tetrahydro-2H-pyran-4-yl)sulfonyl)-3-azabicyclo[3.1.0]hexan-6-yl)ethyl)acrylamide], the concentration for half-maximal inhibition (IC50) was in the range of 0.01 to 0.49 µM.

As for `Nc1ccc(/C=C/C(=O)NCC[C@@H]2[C@H]3CN(S(=O)(=O)C4CCCC4)C[C@@H]23)cn1` [Example 48, (E)-3-(6-aminopyridin-3-yl)-N-(-2 ((1R,5S,6s)-3-(cyclopentylsulfonyl)-3-azabicyclo[3.1.0]hexan-6-yl)ethyl)acrylamide], the IC50 fell in the range of 0.01 to 0.49 µM.

`CC1(OC(=O)N2C[C@@H]3[C@@H](CCNC(=O)c4ccc5nc(N)sc5c4)[C@@H]3C2)COC1` [Example 49, (1R,5S,6s)-3-methyloxetan-3-yl 6-(2-(2-aminobenzo[d]thiazole-6-carboxamido)ethyl)-3-azabicyclo[3.1.0]hexane-3-carboxylate]: the IC50 was in the range of 1 to 29 µM.

As for `CC1(OC(=O)N2C[C@@H]3[C@@H](CCNC(=O)c4cc(-c5cccnc5)on4)[C@@H]3C2)COC1` [Example 50, (1R,5S,6s)-3-methyloxetan-3-yl 6-(2-(5-(pyridin-3-yl)isoxazole-3-carboxamido)ethyl)-3-azabicyclo[3.1.0]hexane-3-carboxylate], the half-maximal inhibitory concentration (IC50) was 0.01 to 0.49 µM.

Regarding `Nc1ccc(/C=C/C(=O)NCC[C@@H]2[C@H]3CN(C(=O)OC4Cc5ccccc5C4)C[C@@H]23)cn1` [Example 51, (1R,5S,6s)-2,3-dihydro-1H-inden-2-yl 6-(2-((E)-3-(6-aminopyridin-3-yl)acrylamido)ethyl)-3-azabicyclo[3.1.0]hexane-3-carboxylate], the IC50 lay in the range of 0.01 to 0.49 µM.

On to `CN1CCC(OC(=O)N2C[C@@H]3[C@@H](CCNC(=O)/C=C/c4ccc(N)nc4)[C@@H]3C2)CC1` [Example 52, (1R,5S,6s)-(1-methylpiperidin)-4-yl 6-(2-((E)-3-(6-aminopyridin-3-yl)acrylamido)ethyl)-3-azabicyclo[3.1.0]hexane-3-carboxylate], for which the IC50 is 0.01 to 0.49 µM.

On to `CC1(OC(=O)N2C[C@@H]3[C@@H](CCNC(=O)/C=C/c4cnc(N)nc4)[C@@H]3C2)COC1` [Example 54, (1R,5S,6s)-3-methyloxetan-3-yl 6-(2-((E)-3-(2-aminopyrimidin-5-yl)acrylamido)ethyl)-3-azabicyclo[3.1.0]hexane-3-carboxylate], for which the IC50 was 1 to 29 µM.

In the case of `CC1(OC(=O)N2C[C@@H]3[C@@H](CCNC(=O)c4cnc5[nH]ncc5c4)[C@@H]3C2)COC1` [Example 55, (1R,5S,6s)-3-methyloxetan-3-yl 6-(2-(1H-pyrazolo[3,4-b]pyridine-5-carboxamido)ethyl)-3-azabicyclo[3.1.0]hexane-3-carboxylate], the half-maximal inhibitory concentration (IC50) is greater than 30 µM.

Turning to `CC(C)(C)NC(=O)N1C[C@@H]2[C@@H](CCNC(=O)c3cc4ccncc4o3)[C@@H]2C1` [Example 56, N-(2-((1R,5S,6s)-3-(tert-butylcarbamoyl)-3-azabicyclo[3.1.0]hexan-6-yl)ethyl)furo[2,3-c]pyridine-2-carboxamide], the IC50 lay within 0.01 to 0.49 µM.

As for `O=C(NCC[C@@H]1[C@H]2CN(C(=O)Nc3ccccc3)C[C@@H]12)c1cc2ccncc2o1` [Example 57, N-(2-((1R,5S,6s)-3-(phenylcarbamoyl)-3-azabicyclo[3.1.0]hexan-6-yl)ethyl)furo[2,3-c]pyridine-2-carboxamide], the IC50 was 0.01 to 0.49 µM.

As for `O=C(NCC[C@@H]1[C@H]2CN(C(=O)N3CCOCC3)C[C@@H]12)c1cc2ccncc2o1` [Example 58, N-(2-((1R,5S,6s)-3-(morpholine-4-carbonyl)-3-azabicyclo[3.1.0]hexan-6-yl)ethyl)furo[2,3-c]pyridine-2-carboxamide], the IC50 was 0.01 to 0.49 µM.

As to `O=C(NCC[C@@H]1[C@H]2CN(C(=O)NC3CCOCC3)C[C@@H]12)c1cc2ccncc2o1` [Example 59, N-(2-((1R,5S,6s)-3-((tetrahydro-2H-pyran-4-yl)carbamoyl)-3-azabicyclo[3.1.0]hexan-6-yl)ethyl)furo[2,3-c]pyridine-2-carboxamide], the IC50 was 0.5 to 0.99 µM.

Turning to `CCN(CC)C(=O)N1C[C@@H]2[C@@H](CCNC(=O)c3cc4ccncc4o3)[C@@H]2C1` [Example 60, N-(2-((1R,5S,6s)-3-(diethylcarbamoyl)-3-azabicyclo[3.1.0]hexan-6-yl)ethyl)furo[2,3-c]pyridine-2-carboxamide], the IC50 fell in the range of 0.01 to 0.49 µM.

In the case of `O=C(NCC[C@@H]1[C@H]2CN(C(=O)OC3CCOCC3)C[C@@H]12)c1cc2ccncc2o1` [Example 61, (1R,5S,6s)-3-tetrahydro-2H-pyran-4-yl 6-(2-(furo[2,3-c]pyridine-2-carboxamido)ethyl)-3-azabicyclo[3.1.0]hexane-3-carboxylate], the IC50 lay in the range of 0.01 to 0.49 µM.

Regarding `CC1(OC(=O)N2C[C@@H]3[C@@H](CCNC(=O)c4nc5ccncc5s4)[C@@H]3C2)COC1` [Example 62, (1R,5S,6s)-3-methyloxetan-3-yl 6-(2-(thiazolo[5,4-c]pyridine-2-carboxamido)ethyl)-3-azabicyclo[3.1.0]hexane-3-carboxylate], the IC50 lay within 1 to 29 µM.

As to `O=C(NCC[C@@H]1[C@H]2CN(C(=O)c3ccccc3)C[C@@H]12)c1ccc2nccn2c1` [Example 63, N-(2-((1R,5S,6s)-3-benzoyl-3-azabicyclo[3.1.0]hexan-6-yl)ethyl)imidazo[1,2-a]pyridine-6-carboxamide], the IC50 lay in the range of 0.01 to 0.49 µM.

`CC(C)(C)NC(=O)N1C[C@@H]2[C@@H](CCNC(=O)c3ccc4nccn4c3)[C@@H]2C1` [Example 64, N-(2-((1R,5S,6s)-3-(tert-butylcarbamoyl)-3-azabicyclo[3.1.0]hexan-6-yl)ethyl)imidazo[1,2-a]pyridine-6-carboxamide]: the IC50 was 0.01 to 0.49 µM.

Regarding `O=C(NCC[C@@H]1[C@H]2CN(C(=O)Nc3ccccc3)C[C@@H]12)c1ccc2nccn2c1` [Example 65, N-(2-((1R,5S,6s)-3-(phenylcarbamoyl)-3-azabicyclo[3.1.0]hexan-6-yl)ethyl)imidazo[1,2-a]pyridine-6-carboxamide], the IC50 is 1 to 29 µM.

For `O=C(NCC[C@@H]1[C@H]2CN(C(=O)N3CCCC3)C[C@@H]12)c1ccc2nccn2c1` [Example 66, N-(2-((1R,5S,6s)-3-(pyrrolidine-1-carbonyl)-3-azabicyclo[3.1.0]hexan-6-yl)ethyl)imidazo[1,2-a]pyridine-6-carboxamide], the IC50 fell in the range of 1 to 29 µM.

Take `O=C(NCC[C@@H]1[C@H]2CN(C(=O)OC3CCOCC3)C[C@@H]12)c1ccc2nccn2c1` [Example 67, (1R,5S,6s)-tetrahydro-2H-pyran-4-yl 6-(2-(imidazo[1,2-a]pyridine-6-carboxamido)ethyl)-3-azabicyclo[3.1.0]hexane-3-carboxylate]: the IC50 lay in the range of 0.01 to 0.49 µM.
